Measured values taken from the supplement of paper PMC11061612.

How the values were obtained:
[1] = tested on: CAL-120 (Breast Carcinoma); assay: Bliss excess, mean over the matrix (fraction); higher = more synergy
In short: (§1)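 Cell lines in DMEM/F12 or RPMI with 10% FBS were plated in 1536-well plates, held 24 hours at 37°C, 5% CO2, then given two-drug dose matrices for 72 hours (DMSO typically 0.2%). Viability was read by CellTiter-Glo 2.0 luminescence and scaled as inhibition from 0 (vehicle wells) to 1 (blank wells). Combination Emax is the second-highest inhibition in the matrix; Bliss excess is observed combination effect minus expected EA + EB − EA·EB, EA and EB being single-agent effects.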

[2] = tested on: COLO-680N (Esophageal Squamous Cell Carcinoma); assay: as above
In short: as §1

[3] = tested on: FADU (Head and Neck Carcinoma); assay: as above
In short: as §1

[4] = tested on: HEC-1 (Endometrial Carcinoma); assay: as above
In short: as §1

[5] = tested on: HSC-39 (Gastric Carcinoma); assay: as above
In short: as §1

[6] = tested on: KE-37 (T-Lymphoblastic Leukemia); assay: as above
In short: as §1

[7] = tested on: LB996-RCC (Kidney Carcinoma); assay: as above
In short: as §1

[8] = tested on: LN-229 (Glioblastoma); assay: as above
In short: as §1

[9] = tested on: OPM-2 (Plasma Cell Myeloma); assay: as above
In short: as §1

[10] = tested on: PANC-03-27 (Pancreatic Carcinoma); assay: as above
In short: as §1

[11] = tested on: PC-3_[JPC-3] (Lung Adenocarcinoma); assay: as above
In short: as §1

[12] = tested on: REH (B-Lymphoblastic Leukemia); assay: as above
In short: as §1

[13] = tested on: SF268 (Low Grade Glioma); assay: as above
In short: as §1

[14] = tested on: SK-PN-DW (Other Solid Carcinomas); assay: as above
In short: as §1

[15] = tested on: SU-DHL-10 (B-Cell Non-Hodgkin's Lymphoma); assay: as above
In short: as §1

[16] = tested on: WM793B (Melanoma); assay: as above
In short: as §1

[17] = tested on: 23132-87 (Gastric Carcinoma); assay: combination Emax (second highest fraction inhibited in the dose matrix, 72 h); higher = more inhibition; extreme values may be limits of the assay
In short: as §1

[18] = tested on: CAL-120 (Breast Carcinoma); assay: as above
In short: as §1

[19] = tested on: PC-3_[JPC-3] (Lung Adenocarcinoma); assay: as above
In short: as §1
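Wherever Bliss excess, mean over the matrix is given: after 72 h of two-drug dosing.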

Structure (SMILES)	Bliss excess [1]	Bliss excess [2]	Bliss excess [3]	Bliss excess [4]	Bliss excess [5]	Bliss excess [6]	Bliss excess [7]	Bliss excess [8]	Bliss excess [9]	Bliss excess [10]	Bliss excess [11]	Bliss excess [12]	Bliss excess [13]	Bliss excess [14]	Bliss excess [15]	Bliss excess [16]	combination Emax [17]	combination Emax [18]	combination Emax [19]
CN(C)CCCOc1ccc(-c2ccc3ncc4c(c3c2)n(C2CCOCC2)c(=O)n4C)cn1 [AZD0156] + C=CCn1c(=O)c2cnc(Nc3ccc(N4CCN(C)CC4)cc3)nc2n1-c1cccc(C(C)(C)O)n1 [AZD1775] (first compound max 1 µM, partner max 1 µM)	-0.0638	-0.0252	0.0316	-0.0257	-0.0144	0.0241	-0.0219	-0.0831	-0.0607	-0.063	-0.0018	-0.0158	-0.0665	-0.0282	-0.0088	-0.0081	0.645	0.326	0.393
CN(C)CCCOc1ccc(-c2ccc3ncc4c(c3c2)n(C2CCOCC2)c(=O)n4C)cn1 [AZD0156] + CCN(CCO)CCCOc1ccc2c(Nc3cc(CC(=O)Nc4cccc(F)c4)[nH]n3)ncnc2c1 [AZD2811] (first compound max 1 µM, 7x7, partner max 1 µM)	-0.0164	-0.0404	0.0626	-0.0152	-0.0113	-0.0173	0.0375	-0.0331	0.041	-0.0519	-0.0524	-0.0137	-0.0204	0.0147	-0.0813	0.0212	0.118	0.102	0.101
CN(C)CCCOc1ccc(-c2ccc3ncc4c(c3c2)n(C2CCOCC2)c(=O)n4C)cn1 [AZD0156] + C[C@@H]1COCCN1C2=NC(=NC(=C2)C3(CC3)[S@](=N)(=O)C)C4=C5C=CNC5=NC=C4 [AZD6738] (first compound max 1 µM, 7x7, partner max 10 µM)	0.0142	-0.0311	0.0537	-0.004	0.0054	0.0459	0.0089	-0.0412	0.0261	-0.0078	-0.006	-0.0277	-0.0359	-0.075	0.0699	0.0342	0.873	0.437	0.329
C=CCn1c(=O)c2cnc(Nc3ccc(N4CCN(C)CC4)cc3)nc2n1-c1cccc(C(C)(C)O)n1 [AZD1775] + C[C@@H]1COCCN1C2=NC(=NC(=C2)C3(CC3)[S@](=N)(=O)C)C4=C5C=CNC5=NC=C4 [AZD6738] (first compound max 1 µM, partner max 10 µM)	0.0021	0.0196	0.0676	0.0694	0.0459	0.0552	0.011	-0.0069	0.0437	-0.0426	-0.0732	0.0406	0.0337	0.0186	0.0505	-0.034	0.918	0.583	0.537
C=CCn1c(=O)c2cnc(Nc3ccc(N4CCN(C)CC4)cc3)nc2n1-c1cccc(C(C)(C)O)n1 [AZD1775] + O=C(c1cc(Cc2n[nH]c(=O)c3ccccc23)ccc1F)N1CCN(C(=O)C2CC2)CC1 [Olaparib] (first compound max 1 µM, partner max 10 µM)	0.0027	-0.0482	-0.0303	0.0039	0.0277	0.0513	–	-0.0851	-0.0561	-0.032	-0.0515	-0.0474	-0.0312	-0.0694	-0.0229	-0.0236	0.605	0.396	0.458
CCN(CCO)CCCOc1ccc2c(Nc3cc(CC(=O)Nc4cccc(F)c4)[nH]n3)ncnc2c1 [AZD2811] + C=CCn1c(=O)c2cnc(Nc3ccc(N4CCN(C)CC4)cc3)nc2n1-c1cccc(C(C)(C)O)n1 [AZD1775] (first compound max 1 µM, partner max 1 µM)	-0.0576	-0.0147	0.0047	0.0124	0.0224	0.0353	0.0623	-0.0363	-0.0606	0.001	-0.0752	0.0449	-0.0005	0.0431	-0.0481	0.02	0.656	0.368	0.413
CCN(CCO)CCCOc1ccc2c(Nc3cc(CC(=O)Nc4cccc(F)c4)[nH]n3)ncnc2c1 [AZD2811] + C[C@@H]1COCCN1C2=NC(=NC(=C2)C3(CC3)[S@](=N)(=O)C)C4=C5C=CNC5=NC=C4 [AZD6738] (first compound max 1 µM, 7x7, partner max 10 µM)	-0.0464	-0.0737	-0.0165	-0.0175	-0.0107	-0.0515	0.0304	-0.0563	-0.0187	-0.123	-0.0453	-0.0518	-0.027	-0.0306	-0.0609	-0.0709	0.811	0.396	0.304
CCN(CCO)CCCOc1ccc2c(Nc3cc(CC(=O)Nc4cccc(F)c4)[nH]n3)ncnc2c1 [AZD2811] + O=C(c1cc(Cc2n[nH]c(=O)c3ccccc23)ccc1F)N1CCN(C(=O)C2CC2)CC1 [Olaparib] (first compound max 1 µM, 7x7, partner max 10 µM)	0.0019	-0.0439	0.0347	-0.0059	0.0203	-0.0019	0.025	-0.0223	0.015	-0.0161	-0.0067	0.0285	0.0105	-0.0482	-0.187	-0.015	0.246	0.293	0.205
C[C@@H]1COCCN1c1cc(C2([S@](C)(=N)=O)CC2)nc(-c2ccnc3[nH]ccc23)n1 [AZD6738] + O=C(c1cc(Cc2n[nH]c(=O)c3ccccc23)ccc1F)N1CCN(C(=O)C2CC2)CC1 [Olaparib] (first compound max 10 µM, 7x7, partner max 10 µM)	0.0364	0.0109	0.0098	-0.0041	0.025	0.0288	0.0143	-0.0713	-0.0339	0.0141	0.0112	0.0021	0.0011	0.008	-0.0235	-0.0214	0.768	0.386	0.359
Cc1cc2ncnn2cc1Nc1ncc2c(n1)n(C1CCOCC1)c(=O)n2C [AZD7648] + C=CCn1c(=O)c2cnc(Nc3ccc(N4CCN(C)CC4)cc3)nc2n1-c1cccc(C(C)(C)O)n1 [AZD1775] (first compound max 10 µM, partner max 1 µM)	0.0463	-0.012	-0.0112	-0.0318	-0.0357	-0.0108	-0.0252	-0.0067	-0.0006	-0.048	0.0063	-0.06	0.0296	-0.145	-0.0191	-0.0395	0.659	0.498	0.483
Cc1cc2ncnn2cc1Nc1ncc2c(n1)n(C1CCOCC1)c(=O)n2C [AZD7648] + CCN(CCO)CCCOc1ccc2c(Nc3cc(CC(=O)Nc4cccc(F)c4)[nH]n3)ncnc2c1 [AZD2811] (first compound max 10 µM, 7x7, partner max 1 µM)	-0.0528	-0.0458	0.0177	-0.0269	-0.0371	-0.0002	-0.0098	0.0148	0.0791	-0.0255	-0.0044	-0.0541	0.0023	0.105	-0.0765	-0.0038	0	0.334	0.319
Cc1cc2ncnn2cc1Nc1ncc2c(n1)n(C1CCOCC1)c(=O)n2C [AZD7648] + CN(C)CCCOc1ccc(-c2ccc3ncc4c(c3c2)n(C2CCOCC2)c(=O)n4C)cn1 [AZD0156] (first compound max 10 µM, 7x7, partner max 1 µM)	-0.0197	-0.0078	-0.0048	-0.0239	-0.036	0.0492	-0.0542	-0.0161	-0.0303	0.0421	-0.0019	-0.113	0.0098	0.0349	0.001	-0.029	0.0669	0.414	0.31
Cc1cc2ncnn2cc1Nc1ncc2c(n1)n(C1CCOCC1)c(=O)n2C [AZD7648] + C[C@@H]1COCCN1C2=NC(=NC(=C2)C3(CC3)[S@](=N)(=O)C)C4=C5C=CNC5=NC=C4 [AZD6738] (first compound max 10 µM, 7x7, partner max 10 µM)	0.0192	0.0237	-0.0093	-0.0339	0.0166	0.0286	-0.0199	-0.0085	0.0254	0.0016	0.0627	-0.0088	0.0152	0.0154	-0.0398	-0.0352	0.841	0.325	0.426
CCc1c2c(nc3ccc(O)cc13)-c1cc3c(c(=O)n1C2)COC(=O)[C@]3(O)CC [SN-38] + O=C(c1cc(Cc2n[nH]c(=O)c3ccccc23)ccc1F)N1CCN(C(=O)C2CC2)CC1 [Olaparib] (first compound max 0.3 µM, 7x7, partner max 10 µM)	0.0417	0.0012	0.086	0.0181	-0.0724	0.0357	-0.0651	–	0.0082	0.0498	0.113	0.0473	–	0.0708	–	–	0.814	0.7	0.825
